Results reported in patent US8026232B2, “Benzothiophene oxide derivative and salt thereof” (Toyama Chemical Co., Ltd., priority 2008, dated 2011).
Where a name gives a salt, the structure may show the parent alone.

Experiment: Test Example 1: concentration of compound A in plasma and brain after oral administration to rats
Assay type: in vivo, rat
Details: for Brain MRT (mean residence time) of the compound A / Brain T1/2 (elimination half-life) of the compound A / Plasma MRT (mean residence time) of the compound A / Plasma T1/2 (elimination half-life) of the compound A: rat (Crl: CD male), oral, without fasting, 56 mg/kg compound A maleate or 58 mg/kg compound A oxide maleate; for Brain MRT (mean residence time) of the compound A / Brain T1/2 (elimination half-life) of the compound A: compound A measured in brain; for Plasma MRT (mean residence time) of the compound A / Plasma T1/2 (elimination half-life) of the compound A: compound A measured in plasma
Procedure: In the compound A administration solution, the concentration of the compound A maleate was adjusted to be 14 mg/mL by dissolving the compound A maleate in a physiological saline solution. In the compound A oxide administration solution, the concentration of the compound A oxide maleate was adjusted to be 14.54 mg/mL by dissolving the compound A oxide maleate in a physiological saline solution.
Each of the administration solutions was orally administered to rats (Crl: CD strain male rat: 8 weeks old) without fasting. The dosage was set at 56 mg/kg for the compound A administration group and 58 mg/kg for the compound A oxide administration group.
At 0.25, 0.5, 1, 2, 5, 8, 10 and 12 hours after the administration, for each group, heparinized whole blood was collected from the aorta abdominalis under mild ether anesthesia, and then the rats were killed by exsanguination and the brains were excised.
The collected blood was centrifuged at 4° C. for 10 minutes at approximately 1600×g to obtain the plasma. To 100 μL of the resulting plasma was added 900 μL of distilled water containing 25 ng/mL of the internal standard substance and 25 μL of phosphoric acid, and the resulting mixture was stirred, followed by adding to a solid-phase extraction plate (Oasis HLB 10 mg or 30 mg, manufactured by Waters) which was conditioned with methanol and distilled water. The solid-phase extraction plate was washed with 2 mL of distilled water, followed by eluting with 2 mL of acetonitrile. The eluate was concentrated and dried-up and then dissolved in a mobile phase A solution, followed by centrifuging at 4° C. for 10 minutes at approximately 1600×g. The resulting supernatant was subjected to a liquid chromatography-tandem mass spectrometer to determine the concentration of the compound A in the plasma of each group.
The excised brains were homogenized with 25% ammonia water/methanol (1:49) (10-fold volume of the wet brain weight) and then 2 mL of the homogenate was centrifuged at 4° C. for 10 minutes at approximately 1600×g to separate the supernatant. To the sediment was added 2 mL of 25% ammonia water/methanol (1:49), followed by centrifuging at 4° C. for 10 minutes at approximately 1600×g. These supernatants were combined and concentrated and dried-up and then dissolved in 1 mL of distilled water containing 25 ng/mL of the internal standard substance. To the resulting solution was added 25 μL of phosphoric acid and the resulting mixture was stirred, followed by subjecting to a solid-phase extraction operation similar to that for the above plasma. The resulting eluate was concentrated and dried-up and then dissolved in the mobile phase A solution or 50% methanol, followed by centrifuging at 4° C. for 10 minutes at approximately 1600×g. The resulting supernatant was subjected to the liquid chromatography-tandem mass spectrometer to determine the concentration of the compound A in the brain of each group.
The following instruments and conditions were used for the measurement of the concentration of the compound A.

[1] = rat, oral administration of the compound A oxide, result in words

Brain MRT (mean residence time) of the compound A | Brain T1/2 (elimination half-life) of the compound A | Plasma MRT (mean residence time) of the compound A | Plasma T1/2 (elimination half-life) of the compound A | concentration of the compound A in the plasma and brain [1] | residence time of the compound A in the body [1] | Compound
3.01 h | 1.53 h | 2.86 h | 1.56 h | – | – | O=C(O)/C=C\C(=O)O.OC1CN(CCCOCCc2ccc3sccc3c2)C1 [Compound A Maleate, 1-(3-(2-(1-benzothiophen-5-yl)ethoxy)propyl)azetidin-3-ol maleate, reference compound]
5.72 h | 2.28 h | 5.41 h | 2.69 h | – | – | [O-][s+]1ccc2cc(CCOCCCN3CC(O)C3)ccc21 (stereo not shown) [Compound A oxide Maleate, 1-(3-(2-(1-benzothiophen-5-yl)ethoxy)propyl)azetidin-3-ol S-oxide maleate]
– | – | – | – | maintained at a high concentration | prolonged | [O-][s+]1ccc2cc(CCOCCCN3CC(O)C3)ccc21 (stereo not shown) [compound A oxide, 1-(3-(2-(1-benzothiophen-5-yl)ethoxy)propyl)azetidin-3-ol S-oxide]
